# Target: T1, human adenosine A2a receptor (Homo sapiens, UniProt P29274)
# T1 construct: β1 and γ2 baculoviruses from PerkinElmer Biosignal; host or cells: Sf9 insect cells infected with recombinant baculoviruses; membranes
# Test: Agonist-induced [35S]-GTPγS binding assay on A2a receptor, Sf9 membranes
# Assay type: biochemical
# Conditions: Sf9 cells expressing adenosine A2a receptor, XLGolf, and β1γ2 dimer
# Method: After infection for 48 hours, cells were harvested for membrane preparation. Cells were harvested by centrifugation at 500×g at 4° C. The cell pellets were washed twice with Dulbecco's phosphate-buffered saline (DPBS) at pH 7.4 and suspended in ice-cold 10 mM Tris-HCl with 5 mM EDTA (TE)(pH 7.4) containing a protease inhibitor cocktail (Roche Applied Science, Indianapolis, Ind.) and sonicated. Following centrifugation at 1000×g, membranes were collected from the supernatant by centrifugation at 20,000×g for 30 min at 4° C. The membrane fraction was stored at −80° C. in TE containing 5% glycerol.
# Membranes from Sf9 cells expressing the ADORA2A, XLGolf, β1, and γ2 subunits were resuspended in the reaction buffer (20 mM HEPES, pH 7.4, 100 mM NaCl, 10 mM MgCl2, 1 mM EDTA, 1 mM DTT) including protease inhibitor. Agonist-induced [^35S]-GTPγS binding assay was performed for 90 min at room temperature in 96 well-microplates with a volume of 200 μl per well, and containing 5 μg of membranes, agonist at a concentration range of 10^−12 to 10^−4 M, 10 μM GDP, and 400 pM [^35S]-GTPγS. Non-specific binding was determined in the presence of 10 μM unlabeled GTPαS. Incubations were terminated by rapid filtration of the samples throught glass fiber filters (Whatman GF/C). […] Radioactivity was measured using a Packard Bioscience Top Count NXT Microplate Scintillation microplate reader. […]
# T1 sequence (P29274 whole entry): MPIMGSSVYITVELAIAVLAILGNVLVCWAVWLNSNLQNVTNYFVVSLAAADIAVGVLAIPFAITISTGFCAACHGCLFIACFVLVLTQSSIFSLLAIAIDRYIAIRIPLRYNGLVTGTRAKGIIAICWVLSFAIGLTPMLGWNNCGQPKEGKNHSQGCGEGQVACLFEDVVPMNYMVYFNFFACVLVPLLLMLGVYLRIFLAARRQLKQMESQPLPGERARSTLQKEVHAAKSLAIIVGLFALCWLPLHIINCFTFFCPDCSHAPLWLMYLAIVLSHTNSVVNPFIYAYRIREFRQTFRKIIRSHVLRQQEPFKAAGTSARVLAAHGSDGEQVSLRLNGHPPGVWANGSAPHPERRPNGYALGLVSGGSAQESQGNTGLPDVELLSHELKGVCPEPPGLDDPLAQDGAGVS
compound,measurement,value
Nc1nc(Nc2ccccc2)nc2c1ncn2[C@@H]1O[C@H](CO)[C@@H](O)[C@H]1O [CV1808],potencies of ADA-resistant adenosine receptor ligands,comparable

# Reference: patent publication US20070254313A1, “Gnal Splice Variant and Uses Thereof” (AstraZeneca AB, priority 2003, published 2007)
